Measured values published in patent US20250002487A1, “HETEROCYCLIC COMPOUNDS AND USES THEREOF” (Ventus Therapeutics U.S., Inc., priority 2021, published 2025).
pIC50: −log10 of the molar value.

biological target: human-cGAS (h-cGAS) (Homo sapiens, UniProt Q8N884); test: hcGAS Kinase-Glo Assay; type: biochemical; conditions: 40 nM h-cGAS, 100 μM ATP, 100 μM GTP, 25 nM dsDNA, 3 h incubation, read-out: hcGAS potency IC50
Summary of the method: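 IC50 values come from a luminescence-based Kinase-Glo measurement on human cGAS. Conditions follow the Lama et al. 2019 method with minor modifications.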

Chain of human-cGAS (h-cGAS) (Q8N884 whole entry): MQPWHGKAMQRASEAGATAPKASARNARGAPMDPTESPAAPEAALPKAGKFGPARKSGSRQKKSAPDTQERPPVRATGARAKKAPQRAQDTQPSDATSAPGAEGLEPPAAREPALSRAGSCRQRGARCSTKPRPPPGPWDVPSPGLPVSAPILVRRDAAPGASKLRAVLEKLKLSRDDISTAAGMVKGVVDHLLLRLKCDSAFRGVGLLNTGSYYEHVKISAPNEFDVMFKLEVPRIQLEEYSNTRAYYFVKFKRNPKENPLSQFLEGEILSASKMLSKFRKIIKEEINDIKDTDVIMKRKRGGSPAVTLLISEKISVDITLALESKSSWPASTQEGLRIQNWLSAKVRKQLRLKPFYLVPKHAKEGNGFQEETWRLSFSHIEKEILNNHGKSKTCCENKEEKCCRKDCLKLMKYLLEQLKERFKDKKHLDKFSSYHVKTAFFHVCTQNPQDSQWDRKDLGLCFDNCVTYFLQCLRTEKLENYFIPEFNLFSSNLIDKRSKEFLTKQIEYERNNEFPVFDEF

pIC50 | Structure (SMILES)
≤ 6.00 | CSc1nnc(NC(=O)c2noc(-c3cccnc3)n2)s1 [Compound 105, N-[5-(methylsulfanyl)-1,3,4-thiadiazol-2-yl]-5-(pyridin-3-yl)-1,2,4-oxadiazole-3-carboxamide]
6.00 to 6.30 | CSc1nnc(NC(=O)c2nnc(N3CCC[C@H]3c3ccccc3)o2)s1 [Compound 126, (S)-N-(5-(methylthio)-1,3,4-thiadiazol-2-yl)-5-(2-phenylpyrrolidin-1-yl)-1,3,4-oxadiazole-2-carboxamide]
6.00 to 6.30 | COc1cccc(Cc2ccc3noc(C(=O)Nc4nnc(SC)s4)c3c2)c1 [Compound 161, 5-(3-methoxybenzyl)-N-(5-(methylthio)-1,3,4-thiadiazol-2-yl)benzo[c]isoxazole-3-carboxamide]
≤ 6.00 | CSc1nnc(NC(=O)c2cc(O)cc(-c3ccccc3)n2)s1 [Compound 200, 4-hydroxy-N-(5-(methylthio)-1,3,4-thiadiazol-2-yl)-6-phenylpicolinamide]
6.30 to 7.00 | O=C(Nc1nnc(-c2ccccc2Cl)s1)c1cc(-c2ncccn2)no1 [Compound 154, N-(5-(2-Chlorophenyl)-1,3,4-thiadiazol-2-yl)-3-(pyrimidin-2-yl)isoxazole-5-carboxamide]
6.30 to 7.00 | Cn1cc(-c2cc(C(=O)Nc3nnc(-c4ccccc4Cl)s3)on2)cn1 [Compound 52, N-(5-(2-chlorophenyl)-1,3,4-thiadiazol-2-yl)-3-(1-methyl-1H-pyrazol-4-yl)isoxazole-5-carboxamide]
6.00 to 6.30 | Cc1nnc(NC(=O)c2onc3c2ccc2cccnc23)s1 [Compound 93, N-(5-methyl-1,3,4-thiadiazol-2-yl)isoxazolo[4,3-h]quinoline-3-carboxamide]
6.00 to 6.30 | CNC(=O)c1cc(C(=O)Nc2nnc(-c3ccccc3Cl)s2)on1 [Compound 89, N5-(5-(2-chlorophenyl)-1,3,4-thiadiazol-2-yl)-N3-methylisoxazole-3,5-dicarboxamide]
6.00 to 6.30 | CSc1nnc(NC(=O)c2onc3c2CCc2cccnc2-3)s1 [Compound 173, N-(5-(Methylthio)-1,3,4-thiadiazol-2-yl)-4,5-dihydroisoxazolo[4,3-h]quinoline-3-carboxamide]
6.00 to 6.30 | O=C(Nc1nnc(-c2ccccc2Cl)s1)c1n[nH]c(=O)[nH]1 [Compound 63, N-(5-(2-chlorophenyl)-1,3,4-thiadiazol-2-yl)-5-oxo-4,5-dihydro-1H-1,2,4-triazole-3-carboxamide]
6.00 to 6.30 | CSc1nnc(NC(=O)c2nnn(-c3ccccn3)n2)s1 [Compound 136, N-(5-(methylthio)-1,3,4-thiadiazol-2-yl)-2-(pyridin-2-yl)-2H-tetrazole-5-carboxamide]
6.00 to 6.30 | CSc1nnc(NC(=O)c2noc(-c3ccccc3)n2)s1 [Compound 236, N-(5-methylsulfanyl-1,3,4-thiadiazol-2-yl)-5-phenyl-1,2,4-oxadiazole-3-carboxamide]
6.00 to 6.30 | CSc1nnc(NC(=O)c2cc(-c3ccc(F)cc3F)no2)s1 [Compound 48, 3-(2,4-difluorophenyl)-N-(5-(methylthio)-1,3,4-thiadiazol-2-yl)isoxazole-5-carboxamide]
6.00 to 6.30 | CSc1nnc(NC(=O)c2oncc2-c2ccccc2)s1 [Compound 232, N-[5-(methylsulfanyl)-1,3,4-thiadiazol-2-yl]-4-phenyl-1,2-oxazole-5-carboxamide]
6.30 to 7.00 | CSc1nnc(NC(=O)c2onc3cc(C(=O)O)ccc23)s1 [Compound 204]
> 7.00 | O=C(Nc1nnc(-c2ccccc2Cl)s1)c1ccc(O)c(=O)o1 [Compound 64, N-(5-(2-chlorophenyl)-1,3,4-thiadiazol-2-yl)-3-hydroxy-2-oxo-2H-pyran-6-carboxamide]
6.00 to 6.30 | CSc1nnc(NC(=O)c2cc(Cc3ccccc3)no2)s1 [Compound 233, 3-benzyl-N-[5-(methylsulfanyl)-1,3,4-thiadiazol-2-yl]-1,2-oxazole-5-carboxamide]
6.00 to 6.30 | CSc1nnc(NC(=O)c2nnc(N3CCCC[C@@H]3c3ccccc3)o2)s1 (single isomer, unassigned) [Compound 121*]
